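Each compound was tested at five concentrations against cells in 96-well plates for 48 hours. GI50 = concentration required for 50% inhibition of growth.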 Activity calls are given as the source filed them. Cut-off read from the data, not from the text of the source: active = GI50 up to about 1.1 µM and inactive = higher.
Assays:
Assay in all cases: growth of human tumour cells (NCI), 48 h
[1] = tested on: A549
[2] = tested on: TK-10
[3] = tested on: M14
[4] = tested on: ACHN
[5] = tested on: Malme-3M
[6] = tested on: SF-539
[7] = tested on: U-251
[8] = tested on: HOP-62
[9] = tested on: UO-31
[10] = tested on: A498
[11] = tested on: PC-3
[12] = tested on: SK-MEL-5
[13] = tested on: SN12C
[14] = tested on: EKVX
[15] = tested on: NCI-H23
[16] = tested on: CAKI-1
[17] = tested on: HL-60
[18] = tested on: OVCAR-4
[19] = tested on: NCI-H226
[20] = tested on: CCRF-CEM

Row | SMILES | GI50 [1] | GI50 [2] | GI50 [3] | GI50 [4] | GI50 [5] | GI50 [6] | GI50 [7] | GI50 [8] | GI50 [9] | GI50 [10] | GI50 [11] | GI50 [12] | GI50 [13] | GI50 [14] | GI50 [15] | GI50 [16] | GI50 [17] | GI50 [18] | GI50 [19] | GI50 [20]
1 | COc1cccc(N2N=C3c4ccccc4-n4c(nc5ccccc54)C3C2N)c1 (stereo not drawn) | > 100 µM (inactive) | 92.9 µM (inactive) | 34.1 µM (inactive) | > 100 µM (inactive) | 66.1 µM (inactive) | > 100 µM (inactive) | > 100 µM (inactive) | > 100 µM (inactive) | > 100 µM (inactive) | > 100 µM (inactive) | > 100 µM (inactive) | 20.7 µM (inactive) | > 100 µM (inactive) | > 100 µM (inactive) | > 100 µM (inactive) | > 100 µM (inactive) | > 100 µM (inactive) | > 100 µM (inactive) | – | –
2 | CCOC(=O)NN(C(=O)OCC)c1ccc(/N=N/c2ccc(OC)cc2)n1C | 23 µM (inactive) | 44.2 µM (inactive) | 22.8 µM (inactive) | 23.6 µM (inactive) | 25.2 µM (inactive) | 18.4 µM (inactive) | 29.9 µM (inactive) | 26.9 µM (inactive) | 0.653 µM (active) | 25.3 µM (inactive) | 15.3 µM (inactive) | 17.5 µM (inactive) | 37.1 µM (inactive) | > 100 µM (inactive) | 32.6 µM (inactive) | – | 19.2 µM (inactive) | 36.9 µM (inactive) | 26.2 µM (inactive) | –
3 | N#Cc1nc(-c2cc([N+](=O)[O-])cc([N+](=O)[O-])c2)oc1N | > 10 µM (inactive) | > 10 µM (inactive) | > 10 µM (inactive) | > 10 µM (inactive) | > 10 µM (inactive) | > 10 µM (inactive) | – | > 10 µM (inactive) | 8.93 µM (inactive) | – | > 10 µM (inactive) | > 10 µM (inactive) | > 10 µM (inactive) | > 10 µM (inactive) | > 10 µM (inactive) | > 10 µM (inactive) | > 10 µM (inactive) | > 10 µM (inactive) | > 10 µM (inactive) | > 10 µM (inactive)
4 | CCOc1cc(CCNC)c2c(ccc3ccc(OC)c(O)c32)c1OC | 19.3 µM (inactive) | 18 µM (inactive) | 13.9 µM (inactive) | 13.6 µM (inactive) | 6.92 µM (inactive) | – | 18.3 µM (inactive) | 20.3 µM (inactive) | 15.6 µM (inactive) | – | 13.2 µM (inactive) | 11.8 µM (inactive) | 16.1 µM (inactive) | 19.3 µM (inactive) | 11.7 µM (inactive) | 17.5 µM (inactive) | 15 µM (inactive) | 13.7 µM (inactive) | 17.9 µM (inactive) | 14.9 µM (inactive)
5 | COC(=O)c1ccc(C)cc1C1CN=NC12Cc1cccc(C)c1C2=O (stereo not drawn) | 41.1 µM (inactive) | > 100 µM (inactive) | 19.6 µM (inactive) | 38.3 µM (inactive) | 27.8 µM (inactive) | 90.4 µM (inactive) | 79.1 µM (inactive) | 71.3 µM (inactive) | 26.7 µM (inactive) | – | 22.5 µM (inactive) | 22.2 µM (inactive) | 52.7 µM (inactive) | 27.6 µM (inactive) | 64.9 µM (inactive) | 67.6 µM (inactive) | 20.2 µM (inactive) | 26.5 µM (inactive) | 25.1 µM (inactive) | 31.6 µM (inactive)
6 | COc1ccc(-c2oc3cc(OC)c(OC)c(O)c3c(=O)c2OC)cc1 | > 100 µM (inactive) | 34.1 µM (inactive) | > 100 µM (inactive) | 33.3 µM (inactive) | > 100 µM (inactive) | 30.9 µM (inactive) | 34 µM (inactive) | 30.3 µM (inactive) | > 100 µM (inactive) | – | 39.8 µM (inactive) | > 100 µM (inactive) | 80.4 µM (inactive) | 41.6 µM (inactive) | – | 10.5 µM (inactive) | 29.4 µM (inactive) | 89.9 µM (inactive) | 48.9 µM (inactive) | > 100 µM (inactive)
7 | CC(C)C1(NC(=O)C2CC3c4cccc5[nH]cc(c45)CC3N(C)C2)OC2(O)C3CCCN3C(=O)C(Cc3ccccc3)N2C1=O (stereo not drawn) | 7.21 µM (inactive) | 30.6 µM (inactive) | 42.7 µM (inactive) | 21.4 µM (inactive) | – | 15.4 µM (inactive) | 34.3 µM (inactive) | > 100 µM (inactive) | 12.9 µM (inactive) | – | 5.62 µM (inactive) | 27.7 µM (inactive) | > 100 µM (inactive) | 30.3 µM (inactive) | 30.5 µM (inactive) | 26 µM (inactive) | 6.62 µM (inactive) | 53.5 µM (inactive) | – | 5.9 µM (inactive)
8 | CCO/C(=N/S(=O)(=O)C(F)(F)F)N(C(C)C)C(C)C | > 100 µM (inactive) | > 100 µM (inactive) | > 100 µM (inactive) | > 100 µM (inactive) | > 100 µM (inactive) | 47 µM (inactive) | > 100 µM (inactive) | – | – | > 100 µM (inactive) | > 100 µM (inactive) | > 100 µM (inactive) | > 100 µM (inactive) | > 100 µM (inactive) | > 100 µM (inactive) | > 100 µM (inactive) | > 100 µM (inactive) | > 100 µM (inactive) | – | > 100 µM (inactive)
9 | CCCCCC[C@H]([C@H](C)O)n1cnc2c(N)ncnc21 | > 100 µM (inactive) | > 100 µM (inactive) | > 100 µM (inactive) | 61.5 µM (inactive) | > 100 µM (inactive) | 57.4 µM (inactive) | > 100 µM (inactive) | > 100 µM (inactive) | 91.8 µM (inactive) | – | > 100 µM (inactive) | > 100 µM (inactive) | > 100 µM (inactive) | > 100 µM (inactive) | > 100 µM (inactive) | > 100 µM (inactive) | 50.9 µM (inactive) | > 100 µM (inactive) | > 100 µM (inactive) | > 100 µM (inactive)
10 | O=C(CCCl)NN=C1NCCN1 | > 100 µM (inactive) | > 100 µM (inactive) | > 100 µM (inactive) | > 100 µM (inactive) | > 100 µM (inactive) | > 100 µM (inactive) | > 100 µM (inactive) | > 100 µM (inactive) | > 100 µM (inactive) | > 100 µM (inactive) | > 100 µM (inactive) | > 100 µM (inactive) | > 100 µM (inactive) | > 100 µM (inactive) | > 100 µM (inactive) | – | > 100 µM (inactive) | > 100 µM (inactive) | > 100 µM (inactive) | > 100 µM (inactive)
11 | O=C(/C=C/c1cccs1)c1cccc(C(=O)/C=C/c2cccs2)n1 | > 84.3 µM (inactive) | > 100 µM (inactive) | > 91.2 µM (inactive) | 11.5 µM (inactive) | > 100 µM (inactive) | 6 µM (inactive) | 9.1 µM (inactive) | 25.4 µM (inactive) | 21.3 µM (inactive) | – | 36.3 µM (inactive) | > 100 µM (inactive) | 19.9 µM (inactive) | > 100 µM (inactive) | 31 µM (inactive) | 61.4 µM (inactive) | 7.41 µM (inactive) | > 100 µM (inactive) | > 100 µM (inactive) | 2.82 µM (inactive)
12 | COc1ccc2c(c1)/C(=C\c1c(Cl)nc3sc(C)cn13)C(=O)N2 | 3.79 µM (inactive) | 6.37 µM (inactive) | 2.69 µM (inactive) | 6.95 µM (inactive) | 2.37 µM (inactive) | 2.01 µM (inactive) | 3.21 µM (inactive) | 6.4 µM (inactive) | 5.45 µM (inactive) | 3.7 µM (inactive) | 2.78 µM (inactive) | 2.16 µM (inactive) | 7.05 µM (inactive) | 7.59 µM (inactive) | 4.12 µM (inactive) | 3.37 µM (inactive) | 1.34 µM (inactive) | – | – | 1.19 µM (inactive)
13 | O=C(c1ccccc1)c1ccc(N2C(=O)/C(=C/c3cccc(Oc4ccccc4)c3)N=C2c2ccccc2)c(N2C(=O)/C(=C/c3cccc(Oc4ccccc4)c3)N=C2c2ccccc2)c1 | 31.6 µM (inactive) | 25.5 µM (inactive) | 35.7 µM (inactive) | 53 µM (inactive) | 19.5 µM (inactive) | – | 31.3 µM (inactive) | 67.5 µM (inactive) | 33.3 µM (inactive) | 33.1 µM (inactive) | 26.5 µM (inactive) | 13.3 µM (inactive) | 92.3 µM (inactive) | 44.2 µM (inactive) | 29.6 µM (inactive) | 41.5 µM (inactive) | 6.47 µM (inactive) | 35.3 µM (inactive) | – | 8.32 µM (inactive)
14 | Nc1nc(O)c2nc(CNc3ccc(C(=O)NC(CCC(=O)O)C(=O)O)cc3)cnc2n1 (stereo not drawn) | > 100 µM (inactive) | > 100 µM (inactive) | > 100 µM (inactive) | > 100 µM (inactive) | > 100 µM (inactive) | > 100 µM (inactive) | > 100 µM (inactive) | > 100 µM (inactive) | > 100 µM (inactive) | – | > 100 µM (inactive) | > 100 µM (inactive) | > 100 µM (inactive) | > 100 µM (inactive) | > 100 µM (inactive) | – | – | > 100 µM (inactive) | > 100 µM (inactive) | > 100 µM (inactive)
15 | CCn1c(-c2ccccc2)nc2c1C(=O)c1ccccc1C2=O | 28.4 µM (inactive) | 36.2 µM (inactive) | 15.4 µM (inactive) | – | 8.81 µM (inactive) | 32.4 µM (inactive) | 29.9 µM (inactive) | 42.5 µM (inactive) | – | – | 10.2 µM (inactive) | 11.2 µM (inactive) | 20.7 µM (inactive) | – | 21.8 µM (inactive) | – | 18 µM (inactive) | 12.5 µM (inactive) | 24.4 µM (inactive) | 18.4 µM (inactive)
